Drawing on PubChem BioAssay AID2305 (GlaxoSmithKline (GSK), 2010), this text covers IC50 for 44 compounds.

The test has as its system P. falciparum 3D7 growth, pLDH absorbance. As to the kind of experiment: blood-stage malaria parasite growth potency – strain 3D7, dose response (AID 2305).
Regarding `CC(C)CCNCc1c(O)ccc2ccccc12`, the IC50 (as a rule, the midpoint of a concentration-inhibition curve) worked out at 1670 nM.
Compound `CC1CCC(C[C@@H](C(=O)N[C@@H](CCC(=O)N2CCCCC2)C(=O)Nc2nccs2)[C@H](C(C)C)N(O)C=O)CC1` (some centres undefined) gave an IC50 of 620 nM.
The value for `c1ccc(CN2CCC(NCc3ccccc3-c3cccc(CNC4CCCC4)c3)CC2)cc1` was 720 nM; that for `CC(=O)N(Cc1cccc(-c2cccc(CNCc3ccc4c(c3)OCO4)c2)c1)C1CCN(Cc2ccccc2)CC1` was 840 nM.
In turn, `COc1cc2nc(NCCc3cccc(Cl)c3)nc(NCc3ccccc3)c2cc1OC` came in with an IC50 of 120 nM.
`CC(C)CNCc1ccc(-c2ccc(CN(C(=O)NCCc3ccccc3)C3CCN(Cc4ccccc4)CC3)cc2)cc1` showed an IC50 of 700 nM.
Then `O=[N+]([O-])c1ccc(Nc2nc(NN=Cc3ccc(-c4ccc([N+](=O)[O-])cc4)o3)nc(Nc3ccccc3)n2)cc1`, with 640 nM; and `Nc1nc2c(ncn2OC[C@H]2COP(=O)(O)CO2)c(=O)[nH]1`, with 570 nM.
The value for `Cn1cnc2c(Nc3ccncc3)nc(-c3ccc(OC(F)(F)F)cc3)nc21` was 1100 nM; that for `COc1ccc2[nH]cc(C3CCN(CCC4CCN(C(=O)/C=C/c5ccc(Cl)c(Cl)c5)CC4)CC3)c2c1` was 860 nM.
As for `Cc1cccc2[nH]c(-c3ccc(-c4cccc(CNCCNC(=O)c5ccnn5C)c4)cc3)nc12`, the IC50 is 400 nM. This IC50 is about 2.1-fold lower than that of the compound before.
`Cn1nc(-c2ccc(Cl)cc2)c2cc(C(=O)NCCN3CCOCC3)sc21` came in with a 50% inhibitory concentration (IC50) of 720 nM. This IC50 is about 1.8-fold higher than that of the compound before.
`Cc1ccc(NC(=O)N2CCN(CCCCCNC(=O)/C=C/c3ccc(Cl)c(Cl)c3)CC2)cc1C`: the IC50 came out at 1100 nM.
`COc1cccc(N(CCCN2C(=O)c3cccc4cccc(c34)C2=O)C(=O)c2ccccc2C)c1` came in with an IC50 of 790 nM.
Then `CCCCCOc1ccc(NC2=CC(=O)C(=O)c3ccccc32)cc1`, with 240 nM; and `CN1CCCC(CN2CCN(Cc3cccc(-c4ccc(-c5nc6ccccc6[nH]5)s4)c3)CC2)C1` (centres undefined), with 150 nM; and `COc1ccc(Cl)cc1NC(=O)CN(C)C(=O)c1cnn(-c2ccccc2)n1`, with 230 nM.
Then `COc1ccc(C2C(C(=O)Nc3ccccc3)=C(C)Nc3c(C(=O)Nc4ccccc4)cnn32)cc1` (centres undefined), with 1310 nM.
Then `Cc1cc(N[C@@H](Cc2ccccc2)C(=O)NCCOc2ccccc2)nc(NCCc2ccc(F)cc2)n1`, with 600 nM; and `O=C(NCCCCCN1CCC(c2c[nH]c3ccccc23)CC1)Nc1ccc(Cl)cc1Cl`, with 720 nM; and `COc1ccc(NC(=O)Nc2ccc(-c3ccc(-c4nc5ccccc5[nH]4)cc3)cc2)cc1`, with 510 nM.
As to `CS(=O)(=O)c1ccc(CNCc2ccc(-c3cccc(-c4nc5ccc(F)cc5[nH]4)c3)cc2)cc1`, the IC50 came out at 320 nM. Against the preceding compound, the IC50 is about 1.6-fold lower.
Turning to `COc1ccc2nccc(NN=Cc3ccccc3Cl)c2c1`, the IC50 was found to be 660 nM.
On to `O=C(Nc1cccc(CN2CCCN(CC3CC3)CC2)c1)c1ccc(-c2ccccc2)cc1`, for which the half-inhibitory concentration (IC50) amounted to 930 nM.
`COc1ccc(-c2cnc(N)c(-c3ccc(C(N)=O)cc3)c2)cc1OC`: the IC50 was 900 nM.
The value for `CC(O)c1cccc(-c2ccc(Nc3ccnc4cc(-c5nccs5)ccc34)cc2)c1` (centres undefined) was 1010 nM.
In turn, `COc1cccc(C=CC(=O)NC2CCC(CN3CCC(c4c[nH]c5ccccc45)CC3)CC2)c1OC` (centres undefined) displayed an IC50 of 740 nM.
`Cc1cnc(NCCc2ccc(F)cc2)nc1N[C@@H](CC(C)C)C(=O)Nc1ccccc1`: the IC50 is 970 nM.
Then `NC(N)=Nc1nc(-c2cccc(NC(=O)Cc3ccccc3)c2)cs1`, with 1000 nM; and `COc1ccc(-c2ccc(NC(=O)c3cccc(Cl)c3)cc2)cc1CN(C)CCN(C)C`, with 780 nM; and `COc1cc(Nc2ccnc3ccc(C(C)(C)C)cc23)cc(OC)c1OC`, with 610 nM.
Then `O=C(Nc1nc2cc(S(=O)(=O)NCCCN3CCOCC3)ccc2n1CCCn1ccnc1)c1ccc(Cl)cc1`, with 930 nM; and `CC(=O)Nc1csc(-c2cnc(/C=C(\C)C[C@@H]3OC[C@H](C[C@@H]4O[C@H]4[C@@H](C)[C@H](C)O)[C@@H](O)[C@H]3O)o2)c1`, with 180 nM; and `CCOC(=O)c1ccc(NC(=O)Nc2ccc(Cn3ncc(N4CCCNCC4)c(Cl)c3=O)cc2)cc1`, with 440 nM.
Take `COc1cc(Cc2cnc(N)nc2N)ccc1OCc1ccc(-c2ccccc2C#N)cc1`: the IC50 was 940 nM.
In turn, `CCCCCCNc1c2ccccc2nc2ccccc12` had an IC50 of 950 nM. The IC50 values of the last two compounds are within 1.5-fold of each other.
For the compound `c1ccc(COc2ccc(C3CCCCC3)cc2)nc1`, the IC50 turned out to be 770 nM.
In turn, `O=C(Nc1ccc(-c2cccc(-c3nc4ccc(C(F)(F)F)cc4[nH]3)c2)cc1)c1ccncc1` displayed an IC50 of 660 nM.
Compound `Cc1ccccc1Nc1nc(NCc2ccccc2)nc2ccccc12` came in with an IC50 of 1020 nM.
`CCOc1ccc2nc3cc(NC(=O)c4ccco4)ccc3c(N)c2c1` yielded a 50% inhibitory concentration (IC50) of 800 nM.
Then `CN(C)c1ccc(NC2=NC(C)(C)N=C(N)N2)cc1`, with 220 nM; and `C#CCN1CCC2=C(C1)c1c(O)cc(C(C)CCCc3ccc(F)cc3)cc1OC2(C)C` (centres undefined), with 730 nM.
On to `COc1ccc(CN2CCN(CCOC(c3ccccc3)c3ccccc3)CC2)c(O)c1`, for which the IC50 worked out at 1190 nM.
Regarding `O=c1c(Br)ccccc1Br`, the IC50 came to 790 nM. This IC50 is about 1.5-fold lower than that of the compound before.
